Source: patent US10434094B2, “Combination of checkpoint kinase 1 inhibitors and wee 1 kinase inhibitors” (Array BioPharma Inc., priority 2010, dated 2019)
Where two headings read alike, the source gives them in different places.

What was measured:
[1] = cited from earlier work
HEL92.1.7 cells = test: cellular viability by CellTiter Blue assay, single agents and matrix combination; format: cell-based; settings: Homo sapiens, HEL 92.1.7, 72 h, single agent, three days of treatment
Method: HEL92.1.7 cells were plated in 96-well plates and then treated with Compound 2 or MK-1775 as single agents. After three days of treatment, cellular viability was assessed by CellTiter Blue assay (Promega). Data represent the mean±S.E. (n=5 for Compound 2, n=2 for MK-1775). […] HEL92.1.7 cells were plated in 96-well plates and then treated with combinations of Compound 2 and MK-1775 in matrix fashion at the indicated concentrations. Three days after treatment cellular viability was assessed by CellTiter Blue assay. […] Data represent the average of two independent experiments (triplicate plates were averaged for each individual experiment).

C=CCn1c(=O)c2cnc(Nc3ccc(N4CCN(C)CC4)cc3)nc2n1-c1cccc(C(C)(C)O)n1 [MK-1775]
MTD ([1]; multiple dose (5 BID doses) in combination with carboplatin (AUC 5), trial ongoing): 225 mg
MTD ([1]; multiple dose (5 BID doses) in combination with cisplatin (75 mg/m^2), trial ongoing): 125 mg
MTD ([1]; multiple dose in combination with gemcitabine (1000 mg/m^2), BID day 1): 50 mg
MTD ([1]; multiple dose in combination with gemcitabine (1000 mg/m^2), BID day 2): 25 mg
MTD ([1]; multiple dose in combination with gemcitabine (1000 mg/m^2), QD day 3): 25 mg
MTD ([1]; single dose in combination with carboplatin (AUC 5), patients with advanced solid tumors): 325 mg
MTD ([1]; single dose in combination with cisplatin (75 mg/m^2), patients with advanced solid tumors): 200 mg
MTD ([1]; single dose in combination with gemcitabine (1000 mg/m^2), patients with advanced solid tumors): 200 mg
IC50 (HEL92.1.7 cells): 103 nM

CC(C)C(=O)Nc1c[nH]c2ncc(Br)c(N3CCC[C@@H](N)C3)c12 [Compound 2, (R)—N-(4-(3-aminopiperidin-1-yl)-5-bromo-1H-pyrrolo [2,3-b]pyridin-3-yl)isobutyramide]
IC50 (HEL92.1.7 cells): 30 nM
